The results in this text go back to ChEMBL document CHEMBL5543106, “Fragment growth-based discovery of novel TNIK inhibitors for the treatment of colorectal cancer” (Eur J Med Chem, 2024).

The structures appear in SMILES notation.

Common to all, as to assay type: ADME, organism-based
The nature of data set [1]: Bioavailability in BALB/c mouse at 5 mg/kg, iv measured upto 24 hrs by LC-MS/MS analysis. Particulars: in vivo.
A short description of data set [2]: AUC(0 to t) in BALB/c mouse at 5 mg/kg, iv measured upto 24 hrs by LC-MS/MS analysis. To be noted: in vivo.
The nature of data set [3]: AUC(0 to t) in BALB/c mouse at 10 mg/kg, po measured upto 24 hrs by LC-MS/MS analysis. To be noted: in vivo.
Data set [4] is described as follows: Tmax in BALB/c mouse at 10 mg/kg, po measured upto 24 hrs by LC-MS/MS analysis. Particulars: in vivo.
Data set [5] can be described thus: MRT(0 to t) in BALB/c mouse at 5 mg/kg, iv measured upto 24 hrs by LC-MS/MS analysis. Particulars: in vivo.
Data set [6] can be described thus: Cmax in BALB/c mouse at 5 mg/kg, iv measured upto 24 hrs by LC-MS/MS analysis. Particulars: in vivo.
Data set [7] in a line: Apparent volume of distribution in BALB/c mouse at 5 mg/kg, iv measured upto 24 hrs by LC-MS/MS analysis. To be noted: in vivo, read-out: Vz.
Data set [8] is described as follows: MRT(0 to t) in BALB/c mouse at 10 mg/kg, po measured upto 24 hrs by LC-MS/MS analysis. To be noted: in vivo.
A short description of data set [9]: Apparent volume of distribution in BALB/c mouse at 10 mg/kg, po measured upto 24 hrs by LC-MS/MS analysis. Particulars: in vivo.
Data set [10] is described as follows: Tmax in BALB/c mouse at 5 mg/kg, iv measured upto 24 hrs by LC-MS/MS analysis. To be noted: in vivo.
A short description of data set [11]: Cmax in BALB/c mouse at 10 mg/kg, po measured upto 24 hrs by LC-MS/MS analysis. To be noted: in vivo.

As for `Cn1cnc(-c2ccc(F)cc2)c1-c1ccc2ncc(C#CC(C)(C)O)cc2c1`, the bioavailability in data set [1] was determined as 84.6%. Besides, the AUC(0-t) at 24 h in data set [2] stood at 27000 ng·h/mL; in [3], 45700 ng·h/mL. Besides, the Tmax in data set [4] came to 1.17 h; in [10], 4.98 min. Further, the results for the MRT last at 24 h in data set [5] and in data set [8] were 4.46 h and 6.11 h, respectively. Besides, the Cmax in data set [6] was 6340 ng/mL; in data set [11], 5250 ng/mL. In [7], the Vd came to 0.846 L/kg. Moreover, in [9], the Vz turned out to be 1.41 L/kg.

By bioavailability is commonly meant the share of a dose that reaches the circulation, judged against a reference dose that is usually intravenous. Read a low bioavailability as poor availability. For orientation: AUC(0-t) means the area under the concentration-time curve up to a stated or last time point. Lower therefore signals less exposure. Broadly, the Tmax is the time from dosing to the highest level. In general, MRT last refers to a mean duration of stay, worked out from the concentration-time curve. By Cmax is commonly meant the highest concentration seen after dosing.
